Assay results taken from patent publication US9593305B2, “Differentiation of pluripotent stem cells” (Janssen Biotech, Inc., priority 2008, dated 2017).

Assays:
[1] = system: H1 human embryonic stem cells; assay: Step-wise differentiation, high content analysis of SOX17, cell number, insulin, glucagon (Example 16); format: cell-based
Protocol: (§1) The assay was initiated by aspirating the culture medium from each well and adding back an aliquot (0.5 ml) of test medium. Test conditions for the first step of differentiation were conducted over a three-day period, feeding daily by aspirating and replacing the medium from each well with fresh test medium. On the first day of assay, 100 ng/ml activin A (PeproTech; Cat #120-14) or 100 ng/ml GDF-8 (R&D Systems, Cat #788-G8) was added to respective assay wells where each growth factor was diluted into RPMI-1640 medium (Invitrogen; Cat #: 22400) with 2% Albumin Bovine Fraction V, Fatty Acid Free (FAF BSA) (Proliant Inc. Cat #: SKU 68700), and 20 ng/ml Wnt3a (R&D Systems; Cat #1324-WN/CF). On the second day of assay, 100 ng/ml activin A or 100 ng/ml GDF-8 was diluted into RPMI-1640 medium supplemented with 2% FAF BSA without Wnt3a. In some test samples using GDF-8, Wnt3a was replaced with a small molecule compound, added only on the first day of definitive endoderm differentiation. These small molecules included Compound 19 (2.5 μM in assay), Compound 202 (2.5 μM in assay), Compound 40 (2.5 μM in assay), or a commercially available GSK3 inhibitor BIO (0.5 μM in assay) (EMD Chemicals, Inc.; Cat #361550). At the conclusion of the first step of differentiation, cells from some wells were harvested for flow cytometry analysis to evaluate levels of CXCR4, a marker of definitive endoderm formation. Additional wells were harvested for RT-PCR analysis to measure other markers of differentiation.
Step 5 of the differentiation protocol was carried out over seven days in DMEM-high glucose with 0.1% Albumax, 0.5× Insulin-Transferrin-Selenium, and 1 μM Alk 5 inhibitor. […]
Imaging was performed using an IN Cell Analyzer 1000 (GE Healthcare) utilizing the 51008bs dichroic for cells stained with Hoechst 33342 and Alexa Fluor 488. […] Segmentation for the nuclei was determined based on gray-scale levels (baseline range 100-300) and nuclear size. Averages and standard deviations were calculated for each replicate data set. […]

[2] = system: H1 human embryonic stem cells; assay: Step-wise differentiation, FACS for CXCR4 after step 1 (Example 16); format: cell-based; conditions: 100 ng/ml GDF-8 with compound on first day, compared to activin A and Wnt3a
Protocol: as §1
Cells for FACS analysis were blocked in a 1:5 solution of 0.5% human gamma-globulin (Sigma; Cat#G-4386) in PBS (Invitrogen; Cat #14040-133): BD FACS staining buffer—BSA (BD; Cat #554657) for 15 minutes at 4° C. Cells were then stained with antibodies for CD9 PE (BD; Cat #555372), CD99 PE (Caltag; #MHCD9904) and CXCR4 APC(R&D Systems; Cat#FAB 173A) for 30 minutes at 4° C. After a series of washes in BD FACS staining buffer, the cells were stained for viability with 7-AAD (BD; Cat #559925) and run on a BD FACSArray. […]

| SMILES | cell numbers and SOX17 expression after step 1 ([1]; 100 ng/ml GDF-8 with 2.5 μM compound on first day) | percentage of CXCR4 positive cells after step 1 [2] | relative cell numbers recovered through differentiation step 5 ([1]; GDF-8 with compound in step 1, relative to activin A and Wnt3a) |
| --- | --- | --- | --- |
| C=CCN1CC(=O)NCCCc2cncc(c2)-c2ncnc(n2)Nc2cccc(c2)C1 [Compound 40, 14-Prop-2-en-1-yl-3,5,7,14,17,23,27-heptaazatetracyclo[19.3.1.1˜2.6˜0.1˜8,12˜]heptacosa-1(25), 2(27), 3,5,8(26), 9,11,21,23-nonaen-16-one] | cell numbers in culture and SOX17 expression equivalent to treatment with activin A and Wnt3a | equivalent or slightly higher percentage of CXCR4 positive cells | – |
| CN1CCC(=O)NCCCc2cncc(c2)-c2ncnc(n2)Nc2cccc(c2)C1 [Compound 19, 14-Methyl-3,5,7,14,18,24,28-heptaazatetracyclo[20.3.1.1˜2,6˜0.1˜8,12˜]octacosa-1(26), 2(28), 3,5,8(27), 9,11,22,24-nonaen-17-one] | – | equivalent or slightly higher percentage of CXCR4 positive cells | decrease in cell number |
